Our source for the IC50, half-life and solubility values is patent EP4752152A1, “STEROID COMPOUND, AND PREPARATION METHOD THEREFOR AND USE THEREOF” (Cholesgen (Shanghai) Co.Ltd., priority 2023, dated 2025).

The structures appear in SMILES notation. Converted amounts (≈) assume the structure as drawn. A value given as a limit tells only on which side of the number the result lay.

The subject of one series is SREBP pathway. Kind of series: SREBP luciferase reporter gene system (SRE-luciferase assay). The series is classed as cell-based, human. Particulars: Homo sapiens, Huh-7, 16 h, Huh-7/SRE-luc cells, sterol-deficient medium, 0.01-10 µM. The method in brief: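 Huh-7 cells stably carrying LDLR promoter-luciferase plus GFP were treated 16 h in sterol-deficient medium (5% lipoprotein-deficient serum, 2 µM lovastatin, 10 µM mevalonic acid) at 0.01–10 µM. Luciferase/GFP ratio measured as pathway activity; inhibition versus DMSO fitted to a four-parameter model for IC50.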
Background: In a reporter assay the amount or activity of a reporter protein is the signal.

Series [1] is described as follows: Metabolic stability experiment of mouse liver microsomes. The series is classed as in vitro ADME. On the procedure:
PB solution (100 mM), MgCl2 solution (300 mM), NADPH solution (2.04 mM), and mouse liver microsome (SHQY catalog number: M1000, batch number: 2110330) solution (1.00 mg/mL) were prepared respectively. […] Then, 100 µL of mouse liver microsome solution was added to a 96-well sample plate. For the 0 min sample, acetonitrile solution containing the internal standard was first added; then, 2 µL of 100 µM working solution was added; followed by the addition of 98 µL of pre-warmed 2.04 mM NADPH at 37°C. For the 5 min, 15 min, 30 min, 45 min, and 60 min samples, 2 µL of 100 µM working solution was first added; followed by the addition of 98 µL of pre-warmed 2.04 mM NADPH at 37°C to initiate the reaction; upon reaching the respective time points, a solution of acetonitrile containing the internal standard was added to terminate the reaction. For the NCF60 sample, 2 µL of 100 µM working solution was first added; followed by the addition of 98 µL of pre-warmed PB at 37°C to initiate the reaction; upon reaching the respective time points, a solution of acetonitrile containing the internal standard was added to terminate the reaction. During the experiment, all samples were incubated in a 37°C water bath. All samples were shaken on an oscillator at 800 rpm for 10 min, then centrifuged at 3200 g for 20 min. The supernatant was aspirated, diluted with deionized water at the corresponding ratio, and analyzed by LC-MS/MS. The remaining percentage of the compound at each time point was obtained by dividing the peak area ratio of the compound at 5, 15, 30, 45, and 60 min by the peak area ratio at 0 min. The half-life (T1/2) of the compound was then calculated using Excel. Table 2: Mouse liver microsome stability results of compounds from some examples
Background: Microsomes from liver hold many membrane-bound enzymes, among them those of drug oxidation.

A short description of series [2]: Solubility in fasted-state simulated intestinal fluid (FaSSIF). Format: physicochemical. As to conditions: FaSSIF, pH 6.5, fassif, kinetic from dmso stock, FaSSIF pH 6.5, 300 µM sample solution, room temperature. The method in brief: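 Compound from 10.0 mM DMSO stock added to FaSSIF (phosphate/NaCl buffer, pH 6.5) at 300 µM nominal, shaken 1 h at room temperature, 1000 rpm. After centrifugation, supernatant concentration quantified by LC-MS/MS.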

In series [3] the test system is Fatty Acid Synthase (FASN) gene. The experiment in a line: Inhibition of FASN gene expression (qPCR) in Huh-7 cells. Particulars: Homo sapiens, Huh-7, 16 h, Huh-7 cells, starvation medium, 16 hours, qPCR; class symbols; read-out: FASN IC50. Format: cell-based, human. In short, it runs like this:
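Huh-7 cells switched to starvation DMEM (5% LPDS, 2 µM lovastatin, 10 µM mevalonate) and treated 16 h with compound, top 3000 nM, 3-fold dilutions, 5 concentrations. FASN mRNA by RT-qPCR; inhibition relative to DMSO, IC50 from four-parameter fit.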
A general note: In qPCR the cycle at which signal appears reflects the starting amount.

One may read the IC50 as the point on the concentration scale where inhibition reaches its midpoint. For orientation: half-life means how long it takes for the measured level to halve. Low values mean rapid decline, high ones slow decline. A word on the solubility: it is the concentration that dissolves in the medium under given conditions.

In the case of `COc1cccc(F)c1[C@H](O)CCC[C@@H](C)[C@H]1CC[C@H]2[C@H]3[C@H](CC[C@]12C)[C@@]1(C)CC[C@H](O)[C@H](O)[C@@H]1CC3(F)F` [Compound 128, (1R,3aS,3bS,5aR,6R,7S,9aR,9bS,11aR)-4,4-difluoro-1-[(2R,6R)-6-(2-fluoro-6-methoxyphenyl)-6-hydroxyhexan-2-yl]-9a,11a-dimethylhexadecahydro-1H-cyclopenta[1,2-a]phenanthrene-6,7-diol], the IC50 in the series on SREBP pathway was 0.139 µM; in series [3] it was 200 to 500 nM. The compound further registered a half-life at 1 µM in series [1] above 3.1 h. This compound also had a solubility at 1 h in series [2] of 199 µM (≈ 110 µg/mL).

Regarding `COc1ccc(C(O)CCC[C@@H](C)[C@H]2CC[C@H]3[C@H]4[C@H](CC[C@]23C)[C@@]2(C)CC[C@H](O)[C@H](O)[C@@H]2CC4(F)F)cc1` (stereo partly drawn) [Compound 50, (1R,3aS,3bS,5aR,6R,7S,9aR,9bS,11aR)-4,4-difluoro-1-[(2R)-6-(4-methoxyphenyl)-6-hydroxyhexan-2-yl]-9a,11a-dimethylhexadecahydro-1H-cyclopenta[1,2-a]phenanthrene-6,7-diol], the half-inhibitory concentration (IC50) in the series with SREBP pathway was determined as 0.188 µM. The half-life at 1 µM in series [1] was found to be 1.8 h. In series [2], this compound gave a solubility at 1 h of 248 µM (≈ 132 µg/mL).

With `C[C@H](CCCC(O)c1ccccc1OC(F)(F)F)[C@H]1CC[C@H]2[C@H]3[C@H](CC[C@]12C)[C@@]1(C)CC[C@H](O)[C@H](O)[C@@H]1CC3(F)F` (stereo partly drawn) [Compound 1, (1R,3aS,3bS,5aR,6R,7S,9aR,9bS,11aR)-4,4-difluoro-1-[(2R)-6-hydroxy-6-{2-[(trifluoromethyl)oxy]phenyl}hexan-2-yl]-9a,11a-dimethylhexadecahydro-1H-cyclopenta[1,2-a]phenanthrene-6,7-diol], the half-inhibitory concentration (IC50) in the series on SREBP pathway amounted to 0.33 µM. In series [1], this compound came in with a half-life at 1 µM of 2.78 h. In series [2], the solubility at 1 h was 140 µM (≈ 82.4 µg/mL).

As to `COc1c(F)cccc1C(O)CCC[C@@H](C)[C@H]1CC[C@H]2[C@H]3[C@H](CC[C@]12C)[C@@]1(C)CC[C@H](O)[C@H](O)[C@@H]1CC3(F)F` (stereo partly drawn) [Compound 46, (1R,3aS,3bS,5aR,6R,7S,9aR,9bS,11aR)-4,4-difluoro-1-[(2R)-6-(2-methoxy-3-fluorophenyl)-6-hydroxyhexan-2-yl]-9a,11a-dimethylhexadecahydro-1H-cyclopenta[1,2-a]phenanthrene-6,7-diol], the 50% inhibitory concentration (IC50) in the series with SREBP pathway was 0.07 µM. This compound returned a half-life at 1 µM in series [1] of 2.6 h. The amount in solution in series [2] (solubility at 1 h) came to 277 µM (≈ 153 µg/mL).

With `COc1ccccc1C(O)CCC[C@@H](C)[C@H]1CC[C@H]2C3=C(F)C[C@H]4[C@@H](O)[C@@H](O)CC[C@]4(C)[C@H]3CC[C@]12C` (stereo partly drawn) [Compound 38, (1R,3aR,5aR,6R,7S,9aR,9bR,11aR)-4-fluoro-1-[(2R)-6-hydroxy-6-(2-methoxyphenyl)hexan-2-yl]-9a,11a-dimethyl-2,3,3a,5,5a,6,7,8,9,9a,9b,10,11,11a-tetradecahydro-1H-cyclopenta[1,2-a]phenanthrene-6,7-diol], the half-maximal inhibitory concentration (IC50) in the series on SREBP pathway was 0.11 µM. Besides, the half-life at 1 µM in series [1] turned out to be 0.203 h. Further, the solubility at 1 h in series [2] is 184 µM (≈ 94.8 µg/mL).

For the compound `COc1cccc(C(O)CCC[C@@H](C)[C@H]2CC[C@H]3[C@H]4[C@H](CC[C@]23C)[C@@]2(C)CC[C@H](O)[C@H](O)[C@@H]2CC4(F)F)c1` (stereo partly drawn) [Compound 39, (1R,3aS,3bS,5aR,6R,7S,9aR,9bS,11aR)-4,4-difluoro-1-[(2R)-6-hydroxy-6-(3-methoxyphenyl)hexan-2-yl]-9a,11a-dimethylhexadecahydro-1H-cyclopenta[1,2-a]phenanthrene-6,7-diol], in the series with SREBP pathway, the IC50 amounted to 0.19 µM. The compound also had a half-life at 1 µM in series [1] of 1.95 h. Moreover, the concentration in solution in series [2] (solubility at 1 h) was 177 µM (≈ 94.6 µg/mL).

In the case of `C[C@H](CCCC(O)c1c(F)cccc1F)[C@H]1CC[C@H]2C3=C(F)C[C@H]4[C@@H](O)[C@@H](O)CC[C@]4(C)[C@H]3CC[C@]12C` (stereo partly drawn) [Compound 21, (1R,3aR,5aR,6R,7S,9aR,9bR,11aR)-1-[(2R)-6-(2,6-difluorophenyl)-6-hydroxyhexan-2-yl]-4-fluoro-9a,11a-dimethyl-2,3,3a,5,5a,6,7,8,9,9a,9b,10,11,11a-tetradecahydro-1H-cyclopenta[1,2-a]phenanthrene-6,7-diol], the concentration for half-maximal inhibition (IC50) in the series on SREBP pathway stood at 0.23 µM. The compound further returned a half-life at 1 µM in series [1] of 2.69 h. In addition, the solubility at 1 h in series [2] is 246 µM (≈ 128 µg/mL).

`COc1ccccc1C(O)CCC[C@@H](C)[C@H]1CC[C@H]2[C@H]3[C@H](CC[C@]12C)[C@@]1(C)CC[C@H](O)CC1CC3(F)F` (stereo partly drawn) [Compound 72, (1R,3aS,3bR,7S,9aS,9bS,11aR)-4,4-difluoro-1-[(2R)-6-hydroxy-6-(2-methoxyphenyl)hexan-2-yl]-9a,11a-dimethylhexadecahydro-1H-cyclopenta[1,2-a]phenanthren-7-ol]: the IC50 in the series with SREBP pathway was 0.14 µM; in series [3], below 200 nM. The same compound displayed a half-life at 1 µM in series [1] of 1.38 h.

As to `C[C@H](CCCC(O)c1cccc(OC(F)(F)F)c1)[C@H]1CC[C@H]2[C@H]3[C@H](CC[C@]12C)[C@@]1(C)CC[C@H](O)[C@H](O)[C@@H]1CC3(F)F` (stereo partly drawn) [Compound 84, (1R,3aS,3bS,5aR,6R,7S,9aR,9bS,11aR)-4,4-difluoro-1-[(2R)-6-hydroxy-6-{3-[(trifluoromethyl)oxy]phenyl}hexan-2-yl]-9a,11a-dimethylhexadecahydro-1H-cyclopenta[1,2-a]phenanthrene-6,7-diol], the 50% inhibitory concentration (IC50) in the series on SREBP pathway was 0.204 µM; in series [3], 200 to 500 nM. Besides, the half-life at 1 µM in series [1] is above 3.08 h.

For `C[C@H](CCCC(O)c1cccc(F)c1)[C@H]1CC[C@H]2[C@H]3[C@H](CC[C@]12C)[C@@]1(C)CC[C@H](O)[C@H](O)[C@@H]1CC3(F)F` (stereo partly drawn) [Compound 44, (1R,3aS,3bS,5aR,6R,7S,9aR,9bS,11aR)-4,4-difluoro-1-[(2R)-6-(3-fluorophenyl)-6-hydroxyhexan-2-yl]-9a,11a-dimethylhexadecahydro-1H-cyclopenta[1,2-a]phenanthrene-6,7-diol], in the series on SREBP pathway, the half-inhibitory concentration (IC50) was found to be 0.152 µM. Besides, the half-life at 1 µM in series [1] is above 3.1 h. This compound had a solubility at 1 h in series [2] of 225 µM (≈ 118 µg/mL).

As for `C[C@H](CCCC(O)c1c(F)cccc1F)[C@H]1CC[C@H]2[C@H]3[C@H](CC[C@]12C)[C@@]1(C)CC[C@H](O)CC1CC3(F)F` (stereo in doubt) [Compound 87, (1R,3aS,3bR,7S,9aS,9bS,11aR)-1-[(2R)-6-(2,6-difluorophenyl)-6-hydroxyhexan-2-yl]-4,4-difluoro-9a,11a-dimethylhexadecahydro-1H-cyclopenta[1,2-a]phenanthren-7-ol], the figures for the half-maximal inhibitory concentration (IC50) (in the series on SREBP pathway; in series [3]) were 0.055 µM and below 200 nM, respectively. This compound displayed a half-life at 1 µM in series [1] of 2.26 h.

For the compound `COc1cccc([C@H](O)CCC[C@@H](C)[C@H]2CC[C@H]3[C@H]4[C@H](CC[C@]23C)[C@@]2(C)CC[C@H](O)[C@H](O)[C@@H]2CC4(F)F)c1OC` [Compound 71, (1R,3aS,3bS,5aR,6R,7S,9aR,9bS,11aR)-1-[(2R,6R)-6-(2,3-dimethoxyphenyl)-6-hydroxyhexan-2-yl]-4,4-difluoro-9a,11a-dimethylhexadecahydro-1H-cyclopenta[1,2-a]phenanthrene-6,7-diol], the 50% inhibitory concentration (IC50) in the series with SREBP pathway was 0.083 µM; in series [3], below 200 nM. In series [1], this compound yielded a half-life at 1 µM of 1.05 h.

In the case of `COc1c(F)cccc1C(O)CCC[C@@H](C)[C@H]1CC[C@H]2[C@@H]3CC[C@H]4[C@@H](O)[C@@H](O)CC[C@]4(C)[C@H]3CC[C@]12C` (stereo partly drawn) [Compound 7, 24-[(3-Fluoro-2-methoxyphenyl)(hydroxy)methyl]-5α-cholane-3β,4β-diol], the IC50 with SREBP pathway was 0.07 µM; in series [3], 200 to 500 nM. Moreover, in series [1], the half-life at 1 µM amounted to 0.624 h.
